In one data set the target is T1, recombinant human PARP (Homo sapiens, UniProt P09874).
T1 construct: purchased Trevigen, Inc. (USA)
The experiment in a line: PARP inhibitory activity ([3H]NAD incorporation, filter assay). It is filed as biochemical. To be noted: recombinant human PARP 2 units/ml, 0.3 μM [3H]NAD, DNA 3 μg/ml, room temperature 1.5 hour, duplicate; read-out: IC50 (inhibitory rate of PARP activity). The method, then: PARP (recombinant human PARP, 660 units/mg) (Trevigen, Inc. (USA))
A buffer (50 mM Tris-HCl (pH8.0)/25 mM MgCl2 aqueous solution) was used in preparation of each solution.
To a 96-well round bottom plate made of polypropylene were added successively a test compound solution (20 μl/well), 1 μM [^3H]NAD (specific activity: 7 kBq/ml) containing 10 μg/ml of DNA (30 μl/well), and 4 units/ml (6 μg/ml) PARP solution (50 μl/well), and the plate was placed under room temperature for 1.5 hour for the reaction (final concentrations of each reagent in the reaction solution: DNA: 3 μg/ml; [^3H]NAD: 0.3 μM/specific activity of 2.1 kBq/ml; PARP: 2 units/ml (3 μg/ml)). The reaction was terminated by addition of a 24 mM benzamide (9 μl/well, 2 mM after the addition), and the PARP in the reaction solution was recovered by using a cell harvester (HARVESTER 96 (registered trade name), TOMTEC Inc. (USA)) on the glass fiber filter for plate. Said glass fiber filter had been soaked with 80% ethanol just prior to the recovary of PARP, and after the recovary of PARP, each well of the plate was washed four times with 80% ethanol, and the washings were also passed through the glass fiber filter. Said glass fiber filter was dried by heating with a microwave oven for 3 to 4 minutes, and put into a sample bag being sandwiched between 2 solid scintillant sheets, and said sample bag was sealed by heat sealing. The bag was put on a heater at about 50° C. to melt the scintillant with heat in order to penetrate it into the filter. The plate was cooled to room temperature, and the [^3H] count of poly(ADP-ribose) (cpm) bound to PARP was measured with a counter for plate (1450 MicroBeta (registered trade name) TriLux, PerkinElmer, Inc. (USA)) for 10 minutes per plate.
The inhibitory rate of PARP activity was calculated by the following equation. [formula]
The inhibitory rate of each test compound was measured in duplicate, and an IC50 value thereof was calculated therefrom.

Molecules are shown by their SMILES. pIC50: −log10 of the molar value. Where a name gives a salt, the structure may show the parent alone.

T1 sequence (P09874 whole entry): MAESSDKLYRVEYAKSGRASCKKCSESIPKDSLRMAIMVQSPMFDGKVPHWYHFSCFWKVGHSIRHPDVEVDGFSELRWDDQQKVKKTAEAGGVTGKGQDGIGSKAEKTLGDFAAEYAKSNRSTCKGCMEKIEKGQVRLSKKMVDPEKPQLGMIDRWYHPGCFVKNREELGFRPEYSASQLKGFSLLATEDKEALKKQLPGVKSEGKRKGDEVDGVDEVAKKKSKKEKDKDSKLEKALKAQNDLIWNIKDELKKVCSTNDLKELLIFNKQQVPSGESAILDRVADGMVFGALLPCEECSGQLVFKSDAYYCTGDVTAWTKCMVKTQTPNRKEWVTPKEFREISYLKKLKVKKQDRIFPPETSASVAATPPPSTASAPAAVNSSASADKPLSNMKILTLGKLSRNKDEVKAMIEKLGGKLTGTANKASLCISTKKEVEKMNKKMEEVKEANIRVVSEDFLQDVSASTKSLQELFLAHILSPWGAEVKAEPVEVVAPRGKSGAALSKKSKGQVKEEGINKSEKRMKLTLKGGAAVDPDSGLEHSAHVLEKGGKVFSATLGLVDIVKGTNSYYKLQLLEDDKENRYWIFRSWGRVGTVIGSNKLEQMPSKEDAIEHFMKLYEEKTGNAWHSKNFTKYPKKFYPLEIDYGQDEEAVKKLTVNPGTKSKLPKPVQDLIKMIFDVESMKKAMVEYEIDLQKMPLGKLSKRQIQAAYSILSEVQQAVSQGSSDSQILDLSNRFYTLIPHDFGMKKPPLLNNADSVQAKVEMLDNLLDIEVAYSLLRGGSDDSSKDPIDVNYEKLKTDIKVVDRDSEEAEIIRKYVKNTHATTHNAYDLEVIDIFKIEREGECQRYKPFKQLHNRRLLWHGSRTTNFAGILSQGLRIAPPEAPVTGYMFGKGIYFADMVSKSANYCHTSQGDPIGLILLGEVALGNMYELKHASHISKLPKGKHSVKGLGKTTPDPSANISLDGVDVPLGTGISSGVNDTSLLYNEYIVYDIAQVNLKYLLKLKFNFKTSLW

`O=c1[nH]c(=O)n2c3c(cccc13)CCCC2` [Example 48, 5,6,7,8-Tetrahydro-1H-azepino[3,2,1-ij]quinazoline-1,3(2H)-dione] displayed a melting point of 192 to 196 °C.
Consider `CN(C)c1ccc(C(=O)NCC2Cc3cccc4c(=O)[nH]c(=O)n(c34)C2)cc1` (centres unmarked) [Example 29, 4-(Dimethylamino)-N-[(1,3-dioxo-2,3,6,7-tetrahydro-1H,5H-pyrido[3,2,1-ij]quinazolin-6-yl)methyl]benzamide], for which the melting point is 268 to 278 °C (dec.). The negative logarithm of the IC50 (pIC50) at recombinant human PARP is more than 8.30.
Consider `O=C(NCC1Cc2cccc3c(=O)[nH]c(=O)n(c23)C1)C1CCCCC1` (centres unmarked) [Example 30, N-[(1,3-Dioxo-2,3,6,7-tetrahydro-1H,5H-pyrido[3,2,1-ij]quinazolin-6-yl)methyl]cyclohexanecarboxamide], for which the melting point was 280 to 281 °C (dec.).
For the compound `O=C(Cc1ccccc1)NCC1Cc2cccc3c(=O)[nH]c(=O)n(c23)C1` (centres unmarked) [Example 26, N-[(1,3-Dioxo-2,3,6,7-tetrahydro-1H,5H-pyrido[3,2,1-ij]quinazolin-6-yl)methyl]-2-phenylacetamide], the melting point is 275 °C (dec.).
The compound `Cl.NCC1Cc2cccc3c(=O)[nH]c(=O)n1c23` (centres unmarked) registered a melting point of more than 300 °C.
The same measure, in the same setting: in the case of `O=C(NCC1Cc2cccc3c(=O)[nH]c(=O)n(c23)C1)c1ccccn1` (centres unmarked) [Example 24, N-[(1,3-Dioxo-2,3,6,7-tetrahydro-1H,5H-pyrido[3,2,1-ij]quinazolin-6-yl)methyl]-2-pyridinecarboxamide] it was 247 to 250 °C.
`O=c1[nH]c(=O)n2c3c(cccc13)CCC2` [Example 2, 6,7-Dihydro-1H,5H-pyrido[3,2,1-ij]quinazoline-1,3(2H)-dione]: the melting point was 282 to 284 °C. On recombinant human PARP, the negative logarithm of the IC50 (pIC50) was 7.28.
On to `Cl.NCC1CCn2c(=O)[nH]c(=O)c3cccc1c32` (centres unmarked), for which the melting point was 190 °C (dec.).
Same read-out and setting: the result for `O=C(NCC1Cc2cccc3c(=O)[nH]c(=O)n(c23)C1)c1ccncc1` (centres unmarked) [Example 23, N-[(1,3-Dioxo-2,3,6,7-tetrahydro-1H,5H-pyrido[3,2,1-ij]quinazolin-6-yl)methyl]isonicotinamide] reads 282 to 285 °C.
The compound `O=c1[nH]c(=O)n2c3c(cccc13)CC2` [Example 1, 5,6-dihydro-1H-pyrrolo[3,2,1-ij]quinazoline-1,3(2H)-dione] came in with a melting point of 314 to 315 °C. For the same compound, on recombinant human PARP, the negative-log IC50 (pIC50) was 6.85.
On to `CN(C)Cc1ccc(C(=O)NCC2Cc3cccc4c(=O)[nH]c(=O)n(c34)C2)cc1` (centres unmarked) [Example 33, 4-[(Dimethylamino)methyl]-N-[(1,3-dioxo-2,3,6,7-tetrahydro-1H,5H-pyrido[3,2,1-ij]quinazolin-6-yl)methyl]benzamide], for which the melting point is 240 to 243 °C (dec.).
With `O=C(NCC1Cc2cccc3c(=O)[nH]c(=O)n(c23)C1)c1cnccn1` (centres unmarked) [Example 31, N-[(1,3-Dioxo-2,3,6,7-tetrahydro-1H,5H-pyrido[3,2,1-ij]quinazolin-6-yl)methyl]-2-pyrazinecarboxamide], the melting point was 255 to 257 °C (dec.).
Regarding `CN1CCC(C(=O)NCC2Cc3cccc4c(=O)[nH]c(=O)n(c34)C2)CC1` (centres unmarked) [Example 34, N-[(1,3-Dioxo-2,3,6,7-tetrahydro-1H,5H-pyrido[3,2,1-ij]quinazolin-6-yl)methyl]-1-methyl-4-piperidinecarboxamide], the melting point was 246 to 250 °C (dec.).
For `O=c1[nH]c(=O)n2c3c(cccc13)C(CBr)CC2` (centres unmarked) [Example 10, 7-(Bromomethyl)-6,7-dihydro-1H,5H-pyrido[3,2,1-ij]quinazoline-1,3(2H)-dione], the melting point was 225 °C (dec.).
`Cl.NCC1CCc2cccc3c(=O)[nH]c(=O)n1c23` (centres unmarked) had a melting point of more than 300 °C.
The same measure, in the same setting: in the case of `CN(C)c1ccccc1C(=O)NCC1Cc2cccc3c(=O)[nH]c(=O)n(c23)C1` (centres unmarked) [Example 27, 2-(Dimethylamino)-N-[(1,3-dioxo-2,3,6,7-tetrahydro-1H,5H-pyrido[3,2,1-ij]quinazolin-6-yl)methyl]benzamide] it was 220 to 236 °C.
The compound `CN(C)c1cccc(C(=O)NCC2Cc3cccc4c(=O)[nH]c(=O)n(c34)C2)c1` (centres unmarked) [Example 28, 3-(Dimethylamino)-N-[(1,3-dioxo-2,3,6,7-tetrahydro-1H,5H-pyrido[3,2,1-ij]quinazolin-6-yl)methyl]benzamide] yielded a melting point of 158 to 170 °C.
`Cl.NC1Cc2cccc3c(=O)[nH]c(=O)n(c23)C1` (centres unmarked) yielded a melting point of more than 300 °C.
For `O=c1[nH]c(=O)n2c3c(cccc13)CC2CO` (centres unmarked) [Example 4, 5-(Hydroxymethyl)-5,6-dihydro-1H-pyrrolo[3,2,1-ij]quinazoline-1,3(2H)-dione], the melting point was 238 to 240 °C.
Same read-out and setting: in the case of `O=c1[nH]c(=O)n2c3c(cccc13)CC(CBr)C2` (centres unmarked) [Example 9, 6-(Bromomethyl)-6,7-dihydro-1H,5H-pyrido[3,2,1-ij]quinazoline-1,3(2H)-dione] it was 267 to 270 °C (dec.); in that of `Cl.NCCC(=O)NCC1Cc2cccc3c(=O)[nH]c(=O)n1c23` (centres unmarked), 290 to 296 °C (dec.).
Regarding `O=C(NCC1Cc2cccc3c(=O)[nH]c(=O)n(c23)C1)C1CCNCC1` (centres unmarked) [Example 39, N-[(1,3-Dioxo-2,3,6,7-tetrahydro-1H,5H-pyrido[3,2,1-ij]quinazolin-6-yl)methyl]-4-piperidinecarboxamide hydrochloride], the pIC50 at recombinant human PARP was 8.13.
`O=C(NCC1Cc2cccc3c(=O)[nH]c(=O)n(c23)C1)C1CCN(Cc2ccccc2)CC1` (centres unmarked) [Example 35, 1-Benzyl-N-[(1,3-dioxo-2,3,6,7-tetrahydro-1H,5H-pyrido[3,2,1-ij]-quinazolin-6-yl)methyl]-4-piperidinecarboxamide]: the melting point is 240 to 242 °C (dec.).
In the case of `O=C(NCC1Cc2cccc3c(=O)[nH]c(=O)n(c23)C1)c1ccnnc1` (centres unmarked) [Example 32, N-[(1,3-Dioxo-2,3,6,7-tetrahydro-1H,5H-pyrido[3,2,1-ij]quinazolin-6-yl)methyl]-4-pyridazinecarboxamide], the melting point is 279 to 281 °C (dec.).
Still for that read-out and setting: the result for `O=c1[nH]c(=O)n2c3c(cccc13)CC(CO)C2` (centres unmarked) [Example 5, 6-(Hydroxymethyl)-6,7-dihydro-1H,5H-pyrido[3,2,1-ij]quinazoline-1,3(2H)-dione] reads 252 to 254 °C; that for `O=c1[nH]c(=O)n2c3c(cccc13)C(O)C2` (centres unmarked) [Example 46, 6-hydroxy-5,6-dihydro-1H-pyrrolo[3,2,1-ij]quinazoline-1,3(2H)-dione], 260 to 266 °C (dec.); that for `Cl.NCc1ccc(C(=O)NCC2Cc3cccc4c(=O)[nH]c(=O)n(c34)C2)cc1` (centres unmarked), more than 300 °C.
`O=c1[nH]c(=O)n2c3c(cccc13)CCC2CO` (centres unmarked) [Example 3, 5-(hydroxymethyl)-6,7-dihydro-1H,5H-pyrido[3,2,1-ij]-quinazoline-1,3(2H)-dione]: the melting point was in the range of 205 to 207 °C.
`O=c1[nH]c(=O)n2c3c(cccc13)C(CO)CC2` (centres unmarked) [Example 6, 7-(Hydroxymethyl)-6,7-dihydro-1H,5H-pyrido[3,2,1-ij]quinazoline-1,3(2H)-dione]: the melting point is 226 °C (dec.).
